Counter-ions that a name gives are not always drawn.
Key:
plasma cholesterol = assay: Hypocholesterolemic activity, plasma cholesterol in mice fed test compound in diet; assay type: in vivo, OF1 strain mice; conditions: for change in vivo at 180 mg/kg/day: Mus musculus, feed or water, 240 h, read-out: Plasma Cholesterol (% Control), 0.1% compound in food, 10 days, ca. 180 mg/kg daily, mouse; for decrease plasma cholesterol by: 0.1% in food
Procedure: A. Hypocholesterolemic activity
Mouse fed a normal diet is a convenient model which was proposed by several authors (P. Olivier et al, Atherosclerosis 70, 107-114, 1988) ,for the screening for hypocholesterolemic drugs. OF1 strain mice (Iffa Credo) weighing between 25 and 35 g were divided into 5 groups of 5 animals each, four groups received the test compounds and the fifth group served as control. The test compounds were dissolved in diethyl ether. The ether solution was added to food to obtain a final concentration of 0.1%. compound in food. Ether was then evaporated at room temperature. The animals were fed for 10 days, the dally food intake corresponds to ca. 180 mg/kg. After an overnight fast, they were sacrificed by decapitation under ether anesthesia. Blood samples were collected using EDTA as anticoagulant.
Plasma cholesterol was measured by an enzymatic test (DIAMED, Morat, Switzerland). The mean values of each group receiving the test or reference compounds were expressed as percent of mean value of the contemporary control.

[1] = tested on: lipid peroxidation (rat liver homogenate); assay: Antioxidant activity, inhibition of iron induced lipid peroxidation in liver homogenate; assay type: biochemical, Wistar rat; conditions: FeSO4, 37° C., 2 h; <25 μM where IC50 was not determined
Procedure: The liver of a Wistar rat anesthetized with ether was collected and homogenized in 4 volumes of phosphate buffer (+4° C., pH 7.4) by means of a Potter. After centrifugation at 2000 rpm for 10 min the supernatant obtained was kept at +4° C. Lipid peroxidation was carried out in presence of FeSOhd according to the method described by A. T. Quitaniha et at, Ann.
The mixture contained 1.7 ml phosphate buffer, 0.2 ml homogenate and 0.1 ml of a 2 mM FeSO4 solution. The test compounds were added in a volume of 61 μl of ethanol or DMSO. Oxydation was carried out at 37° C. for 2 h and was stopped by the addition of 20 μl of 2% ethanolic solution of BHT.

In the case of `CC(C)OP(=O)(OC(C)C)C(NCCCc1ccccc1)c1cc(C(C)(C)C)c(O)c(C(C)(C)C)c1` (stereo not shown) [Compound 24], the change in vivo at 180 mg/kg/day (plasma cholesterol) is reported as -22% and the IC50 [1] is reported as under 25 µM.

`CCCCOP(=O)(OCCCC)C(NCCCc1ccccc1)c1cc(C(C)(C)C)c(O)c(C(C)(C)C)c1` (stereo not shown) [Compound 25] gave a change in vivo at 180 mg/kg/day (plasma cholesterol) of -4% and an IC50 [1] of under 25 µM.

In the case of `CCOP(=O)(OCC)C(NCCCc1ccccc1)c1cc(C(C)(C)C)c(O)c(C(C)(C)C)c1` (stereo not drawn) [Compound 26, Hydrochloride salt of diethyl α-(3,5-di-tert-butyl-4-hydroxyphenyl),N-(3-phenylpropyl)-animomethylphosphonate], the “Plasma Cholesterol (% Control)” value (plasma cholesterol; 0.1% compound in food, 10 days, ca. 180 mg/kg daily, mouse) is reported as -11 % Control and the IC50 [1] is reported as under 25 µM.

For `CCOP(=O)(OCC)C(NCCCCc1ccccc1)c1cc(C(C)(C)C)c(O)c(C(C)(C)C)c1` (stereo not drawn) [Compound 27, Diethyl α-(3 ,5-di-tert-butyl-4-hydroxyphenyl)-N-(4-phenylbutyl)-aminomethylphosphonate], the change in vivo at 180 mg/kg/day (plasma cholesterol) was -43%, the “decrease plasma cholesterol by” value (plasma cholesterol; mouse, 10 days) was “more than 30%” and the IC50 [1] was 2.1 µM.

Molecule `CCOP(=O)(OCC)C(NCCOc1ccccc1)c1cc(C(C)(C)C)c(O)c(C(C)(C)C)c1` (stereo not shown) [Compound 28] has a change in vivo at 180 mg/kg/day (plasma cholesterol) of 4% and an IC50 [1] of under 25 µM.

With `CCOP(=O)(OCC)C(NC(C)c1ccccc1)c1cc(C(C)(C)C)c(O)c(C(C)(C)C)c1` (stereo not drawn) [Compound 29, Diethyl α-(3,5-di-tert-butyl-4-hydroxyphenyl)-N-(1-phenylethyl)-aminomethyldiphosphonate] the change in vivo at 180 mg/kg/day (plasma cholesterol) was -32%, the “decrease plasma cholesterol by” value (plasma cholesterol; mouse, 10 days) was “more than 30%” and the IC50 [1] was 5.5 µM.

`CCOP(=O)(OCC)C(NC(C)CCc1ccccc1)c1cc(C(C)(C)C)c(O)c(C(C)(C)C)c1` (stereo not shown) [Compound 30] was tested, and the change in vivo at 180 mg/kg/day (plasma cholesterol) was -12% and the IC50 [1] was 15.6 µM.

With `CCOP(=O)(OCC)C(NC(C)c1cccc2ccccc12)c1cc(C(C)(C)C)c(O)c(C(C)(C)C)c1` (stereo not shown) [Compound 31] the change in vivo at 180 mg/kg/day (plasma cholesterol) was -3% and the IC50 [1] was under 25 µM.

Work on `CCOP(=O)(OCC)C(NC(c1ccccc1)c1ccccc1)c1cc(C(C)(C)C)c(O)c(C(C)(C)C)c1` (stereo not shown) [Compound 32] yielded a change in vivo at 180 mg/kg/day (plasma cholesterol) of -12% and an IC50 [1] of under 25 µM.

`CCOP(=O)(OCC)C(NC(Cc1ccccc1)c1ccccc1)c1cc(C(C)(C)C)c(O)c(C(C)(C)C)c1` (stereo not shown) [Compound 33] was tested, and the change in vivo at 180 mg/kg/day (plasma cholesterol) was -14% and the IC50 [1] was under 25 µM.

Molecule `CCOP(=O)(OCC)C(NC1CC(C)(C)NC(C)(C)C1)c1cc(C(C)(C)C)c(O)c(C(C)(C)C)c1` (stereo not shown) [Compound 35] has a change in vivo at 180 mg/kg/day (plasma cholesterol) of -17% and an IC50 [1] of over 25 µM.

`CCOP(=O)(OCC)C(NC1CCN(Cc2ccccc2)CC1)c1cc(C(C)(C)C)c(O)c(C(C)(C)C)c1` (stereo not shown) [Compound 36] showed a change in vivo at 180 mg/kg/day (plasma cholesterol) of -6% and an IC50 [1] of under 25 µM.

`CCOP(=O)(OCC)C(NCCc1cccn1C)c1cc(C(C)(C)C)c(O)c(C(C)(C)C)c1` (stereo not shown) [Compound 37] gave a change in vivo at 180 mg/kg/day (plasma cholesterol) of 12% and an IC50 [1] of 4 µM.

With `CCOP(=O)(OCC)C(NCc1ccc2c(c1)OCO2)c1cc(C(C)(C)C)c(O)c(C(C)(C)C)c1` (stereo not drawn) [Compound 38, Diethyl α-(3,5-di-tert-butyl4-hydroxyphenyl)-N-piperonyl-aminomethylphosphonate] the change in vivo at 180 mg/kg/day (plasma cholesterol) was -40%, the “decrease plasma cholesterol by” value (plasma cholesterol; mouse, 10 days) was “more than 30%” and the IC50 [1] was 4.3 µM.

Molecule `CCOP(=O)(OCC)C(NCc1ccc(OC)c(OC)c1)c1cc(C(C)(C)C)c(O)c(C(C)(C)C)c1` (stereo not shown) [Compound 39] has a change in vivo at 180 mg/kg/day (plasma cholesterol) of -4% and an IC50 [1] of 4.9 µM.

In the case of `CCOP(=O)(OCC)C(Nc1cccnc1)c1cc(C(C)(C)C)c(O)c(C(C)(C)C)c1` (stereo not shown) [Compound 41], the change in vivo at 180 mg/kg/day (plasma cholesterol) is reported as -35% and the IC50 [1] is reported as 3.5 µM.

For `CCOP(=O)(OCC)C(NCc1cccnc1)c1cc(C(C)(C)C)c(O)c(C(C)(C)C)c1` (stereo not drawn) [Compound 42, Diethyl α-(3,5-di-tert-butyl-4-hydroxyphenyl)-N-(3-picolyl)-aminomethylphosphonate], the change in vivo at 180 mg/kg/day (plasma cholesterol) was -43%, the “decrease plasma cholesterol by” value (plasma cholesterol; mouse, 10 days) was “more than 30%” and the IC50 [1] was 12.8 µM.

For `CCOP(=O)(OCC)C(NCCc1ccccn1)c1cc(C(C)(C)C)c(O)c(C(C)(C)C)c1` (stereo not drawn) [Compound 43, Diethyl α-(3,5-di-tert-butyl-4-hydroxyphenyl)-N-[2-(2-pyridyl)-ethyl]aminomethyl-phosphonate], the change in vivo at 180 mg/kg/day (plasma cholesterol) was -35%, the “decrease plasma cholesterol by” value (plasma cholesterol; mouse, 10 days) was “more than 30%” and the IC50 [1] was under 25 µM.

For `CCOP(=O)(OCC)C(Nc1nc2ccccc2s1)c1cc(C(C)(C)C)c(O)c(C(C)(C)C)c1` (stereo not drawn) [Compound 44, Diethyl α-(3.5-di-tert-butyl-4-hydroxyphenyl)-N-(2-benzothiazolyl)-aminomethylphosphonate], the change in vivo at 180 mg/kg/day (plasma cholesterol) was -17% and the IC50 [1] was under 25 µM.

Work on `CCOP(=O)(OCC)C(NC1(c2ccccc2)CCCC1)c1cc(C(C)(C)C)c(O)c(C(C)(C)C)c1` (stereo not drawn) [Compound 45, Diethyl α-(3,5-di-tert-butyl-4-hydroxyphenyl)-N-(1-phenylcyclopentyl)-aminomethylphosphonate] yielded a change in vivo at 180 mg/kg/day (plasma cholesterol) of -14% and an IC50 [1] of under 25 µM.

In the case of `CCOP(=O)(OCC)C(NC1CCc2ccccc21)c1cc(C(C)(C)C)c(O)c(C(C)(C)C)c1` (stereo not shown) [Compound 46], the change in vivo at 180 mg/kg/day (plasma cholesterol) is reported as -8% and the IC50 [1] is reported as 3.8 µM.

`CCOP(=O)(OCC)C(Nc1ccc2c(c1)CCC2)c1cc(C(C)(C)C)c(O)c(C(C)(C)C)c1` (stereo not shown) [Compound 47] showed a change in vivo at 180 mg/kg/day (plasma cholesterol) of -2% and an IC50 [1] of 2.7 µM.

`CCOP(=O)(OCC)C(Nc1ccc2c(c1)Cc1ccccc1-2)c1cc(C(C)(C)C)c(O)c(C(C)(C)C)c1` (stereo not shown) [Compound 48] was tested, and the change in vivo at 180 mg/kg/day (plasma cholesterol) was 3% and the IC50 [1] was under 25 µM.

`CCOP(=O)(OCC)C(c1cc(C(C)(C)C)c(O)c(C(C)(C)C)c1)N(C)Cc1cccnc1` (stereo not drawn) [Compound 49, Diethyl α-(3.,5-di-tert-butyl-4-hydroxyphenyl)-N-methyl-N-(3-picolyl)aminomethylphosphonate] gave a change in vivo at 180 mg/kg/day (plasma cholesterol) of -19% and an IC50 [1] of 12.8 µM.

Molecule `CCOP(=O)(OCC)C(c1cc(C(C)(C)C)c(O)c(C(C)(C)C)c1)N(C)c1ccccc1` (stereo not shown) [Compound 50] has a change in vivo at 180 mg/kg/day (plasma cholesterol) of 5% and an IC50 [1] of 2.9 µM.

`COP(=O)(OC)C(c1cc(C(C)(C)C)c(O)c(C(C)(C)C)c1)N(CCCc1ccccc1)C(C)=O` (stereo not shown) [Compound 59] gave a change in vivo at 180 mg/kg/day (plasma cholesterol) of -36% and an IC50 [1] of under 25 µM.

In the case of `CCOP(=O)(OCC)C(c1cc(C(C)(C)C)c(O)c(C(C)(C)C)c1)N(CCCc1ccccc1)C(C)=O` (stereo not drawn) [Compound 60, Diethyl α-(3,5-di-tert-butyl-4-hydroxyphenyl)-N-acetyl-N-(3-phenylpropyl)-aminomethylphosphonate], the change in vivo at 180 mg/kg/day (plasma cholesterol) is reported as -49%, the “decrease plasma cholesterol by” value (plasma cholesterol; mouse, 10 days) is reported as “more than 30%” and the IC50 [1] is reported as 2.6 µM.

`CCCOP(=O)(OCCC)C(c1cc(C(C)(C)C)c(O)c(C(C)(C)C)c1)N(CCCc1ccccc1)C(C)=O` (stereo not shown) [Compound 61] was tested, and the change in vivo at 180 mg/kg/day (plasma cholesterol) was -43%, the “decrease plasma cholesterol by” value (plasma cholesterol; mouse, 10 days) was “more than 30%” and the IC50 [1] was under 25 µM.

With `CC(=O)N(CCCc1ccccc1)C(c1cc(C(C)(C)C)c(O)c(C(C)(C)C)c1)P(=O)(OC(C)C)OC(C)C` (stereo not shown) [Compound 62] the change in vivo at 180 mg/kg/day (plasma cholesterol) was -32%, the “decrease plasma cholesterol by” value (plasma cholesterol; mouse, 10 days) was “more than 30%” and the IC50 [1] was under 25 µM.

`CCCCOP(=O)(OCCCC)C(c1cc(C(C)(C)C)c(O)c(C(C)(C)C)c1)N(CCCc1ccccc1)C(C)=O` (stereo not shown) [Compound 63] showed a change in vivo at 180 mg/kg/day (plasma cholesterol) of 4% and an IC50 [1] of under 25 µM.

With `CCOP(=O)(OCC)C(NC1CCCCC1)c1cc(C(C)(C)C)c(O)c(C(C)(C)C)c1` (stereo not shown) [Compound 65] the change in vivo at 180 mg/kg/day (plasma cholesterol) was 7% and the IC50 [1] was under 25 µM.
